Assay results reported in US6461997B1, “Triazole sulfones having herbicidal activity” (Monsanto Technology LLC, priority 1999, dated 2002).

The molecules below were run on GALAP (catchweed bedstraw) (assay: Pre-emergence herbicidal activity, cool season). Details: lowest tested rate with 80% or greater inhibition; rates 300, 100, 30, 10 g/ha; about 14 days.
Type: in vivo, Galium aparine
Method in brief: (§1)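 GR80 values derive from percent inhibition relative to untreated plants, read roughly 14 days after sowing and pre-emergence soil-surface treatment (compound in 50:50 acetone/water; rates typically 10, 30, 100, 300 g/ha). Warm-season weeds grew at 30/21° C day/night, cool-season ones at 18/13° C; an asterisk marks activity without reaching 80% at the highest rate.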

| Structure (SMILES) | Pre-emergence activity GR80, GALAP |
| --- | --- |
| CCN(CC)C(=O)n1cnc(S(=O)(=O)C(F)(F)SC)n1 [Example 9] | [empty] |

What follows are molecules tested on LAMPU (purple deadnettle) (assay: Pre-emergence herbicidal activity, cool season). Details: lowest tested rate with 80% or greater inhibition; rates 300, 100, 30, 10 g/ha; about 14 days.
Type: in vivo, Lamium purpureum
Method in brief: as §1

| Structure (SMILES) | Pre-emergence activity GR80, LAMPU [g/ha] |
| --- | --- |
| CCN(CC)C(=O)n1cnc(S(=O)(=O)C(F)(F)SC)n1 [Example 9] | 300 |

What follows are molecules tested on SORHA (johnsongrass (seedling)) (assay: Pre-plant incorporated (PPI) herbicidal activity, warm season). Details: PPI application, 30 g/ha.
Type: in vivo, Sorghum halepense
Protocol: (§2) In another set of tests, the pre-plant incorporated (PPI) activity of compounds of this invention was evaluated on the same species as for the pre-emergence tests described above. In the PPI tests the following procedure, designed to simulate PPI application, was used.
(§3) A pre-prepared topsoil mixture (described above) was placed in a pot and compacted to a depth of 1.0 to 1.25 cm from the top of the pot. Seeds of each of several monocotyledonous and dicotyledonous annual plant species were placed on top of the soil. A sufficient quantity of soil to cover the seeds and level fill the pot was weighed into an open container. A known amount of the test compound was dissolved or suspended in an organic solvent and applied by spraying to this cover soil. The cover soil was thoroughly mixed to distribute the test compound throughout the cover soil, and was then applied as a cover layer over the seeds. Untreated soil was used as a cover layer for control pots. After treatment the plants were placed in a greenhouse where they received 0.64 cm of overhead irrigation. All subsequent watering consisted of a light overhead mist and/or subirrigation as needed for germination and growth. Tables 9 and 10 below relate to warm season plant species which were placed after pre-emergence treatment in a greenhouse with a 30/21° C. day/night temperature regime. Tables 11 and 12 below relates to cool season plant species placed after pre-emergence treatment in a greenhouse or growth chamber with an 18/13° C. day/night temperature regime. Only the compounds of Examples 1, 6, 8, 11, 13 and 15-20 were included in PPI tests.
(§4) Approximately 14 days after planting and treating, the plants were observed and herbicidal efficacy recorded as percent inhibition by comparison with untreated plants.

| Structure (SMILES) | Percent inhibition SORHA [%] |
| --- | --- |
| CCN(CC)C(=O)n1cnc(S(=O)(=O)C(F)(F)SC)n1 [Example 9] | 100 |

Same assay, conditions: PPI application, 100 g/ha

| Structure (SMILES) | Percent inhibition SORHA [%] |
| --- | --- |
| CCN(CC)C(=O)n1cnc(S(=O)(=O)C(F)(F)SC)n1 [Example 9] | 100 |

Same assay, conditions: PPI application, 300 g/ha

| Structure (SMILES) | Percent inhibition SORHA [%] |
| --- | --- |
| CCN(CC)C(=O)n1cnc(S(=O)(=O)C(F)(F)SC)n1 [Example 9] | 100 |

Same assay, conditions: PPI application, 900 g/ha

| Structure (SMILES) | Percent inhibition SORHA [%] |
| --- | --- |
| CCN(CC)C(=O)n1cnc(S(=O)(=O)C(F)(F)SC)n1 [Example 9] | 100 |

Each molecule was assayed on BRAPP (broadleaf signalgrass) in the same assay as above. Details: PPI application, 30 g/ha.
Type: in vivo, Brachiaria platyphylla
Protocol: as §2, §3, §4

| Structure (SMILES) | Percent inhibition BRAPP [%] |
| --- | --- |
| CCN(CC)C(=O)n1cnc(S(=O)(=O)C(F)(F)SC)n1 [Example 9] | 70 |

Same assay, conditions: PPI application, 100 g/ha

| Structure (SMILES) | Percent inhibition BRAPP [%] |
| --- | --- |
| CCN(CC)C(=O)n1cnc(S(=O)(=O)C(F)(F)SC)n1 [Example 9] | 80 |

Same assay, conditions: PPI application, 300 g/ha

| Structure (SMILES) | Percent inhibition BRAPP [%] |
| --- | --- |
| CCN(CC)C(=O)n1cnc(S(=O)(=O)C(F)(F)SC)n1 [Example 9] | 100 |

Same assay, conditions: PPI application, 900 g/ha

| Structure (SMILES) | Percent inhibition BRAPP [%] |
| --- | --- |
| CCN(CC)C(=O)n1cnc(S(=O)(=O)C(F)(F)SC)n1 [Example 9] | 100 |

What follows are molecules tested on LAMPU (purple deadnettle) (assay: Pre-plant incorporated (PPI) herbicidal activity, cool season). Details: weed, PPI application, 30 g/ha.
Type: in vivo, Lamium purpureum
Protocol: as §2, §3, §4

| Structure (SMILES) | Percent inhibition LAMPU [%] |
| --- | --- |
| CCN(CC)C(=O)n1cnc(S(=O)(=O)C(F)(F)SC)n1 [Example 9] | 0 |

Same assay, conditions: weed, PPI application, 100 g/ha

| Structure (SMILES) | Percent inhibition LAMPU [%] |
| --- | --- |
| CCN(CC)C(=O)n1cnc(S(=O)(=O)C(F)(F)SC)n1 [Example 9] | 40 |

Same assay, conditions: weed, PPI application, 300 g/ha

| Structure (SMILES) | Percent inhibition LAMPU [%] |
| --- | --- |
| CCN(CC)C(=O)n1cnc(S(=O)(=O)C(F)(F)SC)n1 [Example 9] | 100 |

Same assay, conditions: weed, PPI application, 900 g/ha

| Structure (SMILES) | Percent inhibition LAMPU [%] |
| --- | --- |
| CCN(CC)C(=O)n1cnc(S(=O)(=O)C(F)(F)SC)n1 [Example 9] | 95 |

What follows are molecules tested on AGSST (creeping bentgrass) in the same assay as above. Details: weed, PPI application, 30 g/ha.
Type: in vivo, Agrostis stolonifera
Protocol: as §2, §3, §4

| Structure (SMILES) | Percent inhibition AGSST [%] |
| --- | --- |
| CCN(CC)C(=O)n1cnc(S(=O)(=O)C(F)(F)SC)n1 [Example 9] | 99 |

Same assay, conditions: weed, PPI application, 100 g/ha

| Structure (SMILES) | Percent inhibition AGSST [%] |
| --- | --- |
| CCN(CC)C(=O)n1cnc(S(=O)(=O)C(F)(F)SC)n1 [Example 9] | 100 |

Same assay, conditions: weed, PPI application, 300 g/ha

| Structure (SMILES) | Percent inhibition AGSST [%] |
| --- | --- |
| CCN(CC)C(=O)n1cnc(S(=O)(=O)C(F)(F)SC)n1 [Example 9] | 100 |

Same assay, conditions: weed, PPI application, 900 g/ha

| Structure (SMILES) | Percent inhibition AGSST [%] |
| --- | --- |
| CCN(CC)C(=O)n1cnc(S(=O)(=O)C(F)(F)SC)n1 [Example 9] | 100 |

What follows are molecules tested on SETVI (green foxtail) (assay: Post-emergence herbicidal activity, cool season). Details: abraded plants sprayed at 300, 100, 30 and 10 g/ha; about 14 days after treatment.
Type: in vivo, Setaria viridis
Method in brief: (§5)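 Post-emergence foliar spray; plants abraded (garnet 200w, ~850 kPa sandblast) before application. Rates 300/100/30/10 g/ha in 50:50 acetone:water, 3,100 l/ha, 511 kPa. Greenhouse 18/13° C. day/night; % inhibition vs abraded unsprayed controls at ~14 days after treatment, GR80 derived.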

| Structure (SMILES) | Post-emergence activity GR80, SETVI |
| --- | --- |
| CCN(CC)C(=O)n1cnc(S(=O)(=O)C(F)(F)SC)n1 [Example 9] | [empty] |

What follows are molecules tested on AGRRE (quackgrass (seedling)) (assay: Post-emergence herbicidal activity, cool season). Details: abraded plants sprayed at 300, 100, 30 and 10 g/ha; about 14 days after treatment.
Type: in vivo, Elymus repens
Method in brief: as §5

| Structure (SMILES) | Post-emergence activity GR80, AGRRE |
| --- | --- |
| CCN(CC)C(=O)n1cnc(S(=O)(=O)C(F)(F)SC)n1 [Example 9] | [empty] |
